Measured values published in US20020054941A1, “Methods and compositions to enhance tenderness and value of meat” (The Board of Regents of the University of Nebraska, priority 2000, published 2002).
Marks after values point to notes of the source that are not given here.

Tests used:
[1] = system: sternomandibularis beef muscles; assay: pH of pre-rigor injected sectioned muscle; details: injection 10% of muscle weight, 200 mM (glucose, calcium chloride 300 mM)
Experimental: (§1) Pre-rigor beef muscle was sectioned and the sections were injected at approximately 1 hour post-mortem with a volume of treatment solution equal to 10% of the muscle weight. Objective color measurements were taken on pieces of each muscle section and the pieces were then frozen, powdered and stored at −80° C. for up to 10 days before testing pH and analyzing oxidation-reduction potential. Shear force was evaluated as described immediately above. Solutions used in this procedure were as follows: sodium citrate (200 mM), sodium acetate (200 mM), glucose (300 mM), calcium citrate (200 mM), calcium chloride (300 mM), injection with water, and no injection (control). The calcium citrate solution was prepared as a suspension using 0.25% carrageenan and 200 mM calcium citrate due to its insolubility in water. However, use of calcium citrate can be optimized by increasing solubility by means known in the art.

[2] = system: sternomandibularis beef muscles; assay: Shear force of pre-rigor injected sectioned muscle; details: 200 mM (glucose, calcium chloride 300 mM)
Experimental: Pre-rigor beef muscle was sectioned into 100 g. samples at approximately 3 hours post-mortem. The pieces were injected with 10 mL of treatment solution followed by marination in the solution for 24 hours at 2° C. before testing pH and recording visual color of the muscle sections. For evaluation of shear force, samples were thawed, cooked, sliced (approximately 6 mm by 6 mm) and then cooled before readings were taken. The solutions used for this procedure were as described above for homogenized muscle.
as §1

[3] = system: semimembranosus beef muscles; assay: Muscle pH, pre-rigor injection of whole muscle; details: for pH, 0 h: 0 h (before injection); for pH, 24 h / pH, 72 h: 200 mM, calcium chloride 300 mM
Experimental: (§2) Experiment were conducted to test the effects of pre-rigor injection of several compounds. Effects of these compounds on pH, color, tenderness and other related traits of low-value beef cuts were investigated. Ten steers (22 to 24 mo of age, 515 to 676 kg live weight) were slaughtered according to current industry procedures. Pre-rigor semimembranosus (from the round), triceps brachii and supraspinatus muscles (from the chuck) were excised, after evisceration (approximately 1 hour post-mortem), from both sides of the carcass. Muscle sections were randomly assigned to the treatments: sodium citrate (NaC; 200 mM), sodium fluoride (NaF; 200 mM), sodium acetate (NaA; 200 mM), and calcium chloride (CaCl2; 300 mM). The control samples remained on the carcass at 2° C. for 24 hours to simulate commercial conditions. Following a cooling, control muscles were removed from each carcass (4 replicates), vacuum packaged and transferred to the holding cooler with the other cuts at 2° C. Calcium chloride treatment was included to be compared with the other treatments.
(§3) At 2 hours post-mortem, each muscle was injected with a volume equal to 8% of the muscle weight using a four-needle hand injector. The temperature of solutions were 4° C. Each muscle was individually treated (2% of solution was added to give a total of 10% of muscle weight) and tumbled in a 75-pound capacity tumbler (Röschermatic, Oshabrück, Germany) for 30 min to insure uniform distribution of the solution.
(§4) Samples of each muscle (approximately 100 g) were taken at 0 hour (before injection), 24, and 72 hours after injection for determination of pH, oxidation-reduction potential, glycogen content, R-values, NAD, and NADH. The samples were then immediately frozen in liquid nitrogen and stored at −80° C. until they were powdered and analyzed. Fresh muscle samples (approximately 20 g) were taken at 72 hours after injection and assayed immediately for water holding capacity and sarcomere length.
(§5) Duplicate pre-rigor samples (5 g) were weighed from powdered sample and homogenized (Polytron, Brinkman Instruments, New York, N.Y.) in 50 mL of 5 mM iodoacetic acid, 150 mM potassium chloride (pH 7.0, 24° C.) to stop glycolysis (Ahn et al., 1992). The pH of the suspension was measured with a general purpose electrode (Corning Glass Works, Corning, N.Y.) attached to an Orion Model SA 720 pH meter (Orion Research, Inc., Boston, Mass.). Post-rigor muscle pH was determined by homogenizing 5 g of sample in 50 mL of deionized water (Winger et al., 1979).

[4] = system: supraspinatus beef muscles; assay: Muscle pH, pre-rigor injection of whole muscle; details: for pH, 0 h: 0 h (before injection); for pH, 24 h / pH, 72 h: 200 mM, calcium chloride 300 mM
Experimental: as §2, §3, §4, §5

[5] = system: triceps brachii beef muscles; assay: Muscle pH, pre-rigor injection of whole muscle; details: 200 mM, calcium chloride 300 mM; for pH, 0 h: 0 h (before injection); for pH, 24 h: 24 h after injection; for pH, 72 h: 72 h after injection
Experimental: as §2, §3, §4, §5

[6] = system: semimembranosus beef muscles; assay: Glycogen content, pre-rigor injection of whole muscle; details: for Glycogen, 0 h: 0 h (before injection); for Glycogen, 24 h / Glycogen, 72 h: 200 mM, calcium chloride 300 mM
Experimental: as §2, §3, §4
(§6) Glycogen extraction was performed in duplicate with 3 g of frozen-powdered muscle sample, which was homogenized with 0.6 N perchloric acid. Amylo-α-1,4-α-1,6- glucosidase from Aspergillus niger (No. A3514. Sigma Chemical, St. Louis, Mo.) was used for the breakdown of the glycogen molecules to free glucose following the method described by Roehrig and Allred (1974). Homogenate was incubated for 2 hours at 37° C., then 100 μL of 3 N perchloric acid was added to precipitate the proteins. After centrifugation, the supernatant was stored at 0-4° C., until analyzed, which was within 2 weeks.
(§7) The assay for glucose was run as described by Dalrymple and Hamm (1973) and Roehrig and Allred (1974), using glucose-6-phosphate dehydrogenase (No. G8878. Sigma Chemical, St. Louis, Mo.) and hexokinase (No. H5500. Sigma Chemical, St. Louis, Mo.). Briefly, the method involves an exoglucosidase, Amylogucosidase, from Aspergillus niger which hydrolyses the -α-D-(1-4) and -α-D-(1-6)-linkages of glycogen. The glucose formed is specifically determined with hexokinase and glucose-6-phosphate dehydrogenase. The glucose liberated after hydrolysis of glycogen is proportional to the increase of absorbance measured at 340 nm. Fifty μL of sample was incubated with 1 mL ATP, NADP, Glucose-6-phosphate dehydrogenase buffer and 5 μL hexokinase at 37° C. for 15 min. Absorbance was measured at 340 nm wavelength, light path=1 cm. The muscle glycogen content was calculated with the following formula: Glycogen (μmol glucose/g wet muscle weight)=111.882×absorbance. 111.882 is the dilution factor.

[7] = system: supraspinatus beef muscles; assay: as above; details: for Glycogen, 0 h: 0 h (before injection); for Glycogen, 24 h / Glycogen, 72 h: 200 mM, calcium chloride 300 mM
Experimental: as §2, §3, §4, §6, §7

[8] = system: triceps brachii beef muscles; assay: as above; details: 200 mM, calcium chloride 300 mM; for Glycogen, 0 h: 0 h (before injection)
Experimental: as §2, §3, §4, §6, §7

[9] = system: semimembranosus beef muscles; assay: Warner-Bratzler shear force, pre-rigor injection of whole muscle; details: 200 mM, calcium chloride 300 mM; for Shear force, 3 d: 3 d postmortem; for Shear force, 7 d: 7 d postmortem; for Shear force, 14 d: 14 d postmortem
Experimental: as §2, §3
(§8) Tenderness of samples was evaluated by measuring Warner-Bratzler shear force. Steaks (2.54-cm thick) from the middle of each muscle were cut and frozen at 3, 7 and 14 days postmortem. Frozen steaks (2.54 cm thick) were thawed at 4° C. for 24 hours and cooked on Farberware Open Hearth Broilers (Model 350A Walter Kidde, Bronx, N.Y.) to an internal temperature of 40° C., turned, and cooked to a final internal temperature of 70° C. (AMSA, 1995). Temperature was monitored using an OMEGA thermocouple thermometer type T (Omega Engineering, Inc., Stamford, Conn.) inserted into the geometric center of a steak. The cooked steaks were chilled 2 hours at 2° C., and then 8 cores (1.27-cm diameter) were removed parallel to the muscle fiber orientation. Cores were sheared once each on an Instron Universal Testing Machine model 55R1123 (Instron, Canton, Mass.) with a Warner-Braztler attachment. The Instron was set up with a 500 kg load cell, full scale load=1 (0-10 kg), and crosshead speed=250 mm/mim.

[10] = system: supraspinatus beef muscles; assay: as above; details: 200 mM; for Shear force, 3 d: 3 d postmortem; for Shear force, 3 d / Shear force, 7 d: calcium chloride 300 mM; for Shear force, 7 d: 7 d postmortem; for reduced shear force compared with controls: supraspinatus, 3 days post-mortem, CaCl2 300 mM
Experimental: as §2, §3, §8

[11] = system: triceps brachii beef muscles; assay: as above; details: 200 mM, calcium chloride 300 mM; for Shear force, 3 d: 3 d postmortem; for Shear force, 7 d: 7 d postmortem; for Shear force, 14 d: 14 d postmortem
Experimental: as §2, §3, §8

For `[Ca+2].[Cl-].[Cl-]` [Calcium chloride, calcium chloride, reference compound], which “PH (0 h)” value [1] is on record?
The value was 6.77.

And the “pH, 72 h” value [1]?
Its value is 5.88^d.

What about the “Shear force, kg (72 h)” value [2] of the same compound?
The value was 6.61^a kg.

And the “pH, 0 h” value [3]?
The value was 6.76.

What about the “pH, 24 h” value [3] of the same compound?
Its value is 5.77^b.

What about the “pH, 72 h” value [3] of the same compound?
The value was 5.60^c.

What about the “pH, 0 h” value [4] of the same compound?
The value was 6.75.

And the “pH, 24 h” value [4]?
Its value is 5.88^c.

What about the “pH, 72 h” value [4] of the same compound?
The value was 5.54^c.

What about the “pH, 0 h” value [5] of the same compound?
The value was 6.77.

What about the “pH, 24 h” value [5] of the same compound?
The value was 5.84^b.

And the “pH, 72 h” value [5]?
The value was 5.67^b.

And the “Glycogen, 0 h” value [6]?
The value was 58.18 μmol/g muscle.

What about the “Glycogen, 24 h” value [6] of the same compound?
Its value is 45.90^ab μmol/g muscle.

And the “Glycogen, 72 h” value [6]?
Its value is 37.10^ab μmol/g muscle.

What about the “Glycogen, 0 h” value [7] of the same compound?
Its value is 37.98 μmol/g muscle.

What about the “Glycogen, 24 h” value [7] of the same compound?
The value was 26.75 μmol/g muscle.

And the “Glycogen, 72 h” value [7]?
Its value is 19.31^b μmol/g muscle.

And the “Glycogen, 0 h” value [8]?
Its value is 39.14 μmol/g muscle.

What about the “Glycogen, 24 h” value [8] of the same compound?
Its value is 28.76^b μmol/g muscle.

What about the “Glycogen, 72 h” value [8] of the same compound?
The value was 25.01^bc μmol/g muscle.

And the “Shear force, 3 d” value [9]?
The value was 6.28 kg.

And the “Shear force, 7 d” value [9]?
Its value is 5.36 kg.

What about the “Shear force, 14 d” value [9] of the same compound?
Its value is 4.03 kg.

And the “Shear force, 3 d” value [10]?
The value was 5.55^c kg.

What about the “Shear force, 7 d” value [10] of the same compound?
Its value is 4.84^b kg.

What about the “reduced shear force compared with controls” value [10] of the same compound?
The value was 1.73 kg.

And the “Shear force, 3 d” value [11]?
Its value is 4.95^bc kg.

What about the “Shear force, 7 d” value [11] of the same compound?
The value was 4.87^b kg.

And the “Shear force, 14 d” value [11]?
The value was 4.07 kg.

Which “PH (0 h)” value [1] does the source give for `O=C([O-])CC(O)(CC(=O)[O-])C(=O)[O-].O=C([O-])CC(O)(CC(=O)[O-])C(=O)[O-].[Ca+2].[Ca+2].[Ca+2]` [Calcium citrate, calcium citrate] here?
Its value is 6.92.

What about the “pH, 72 h” value [1] of the same compound?
The value was 5.82^cd.

What about the “Shear force, kg (72 h)” value [2] of the same compound?
The value was 7.57^a kg.

Which results are given for `[F-].[Na+]` [Sodium fluoride, sodium fluoride, reference compound]?
pH, 0 h [3]: 6.70; pH, 24 h [3]: 6.08^a; pH, 72 h [3]: 5.97^a; pH, 0 h [4]: 6.72; pH, 24 h [4]: 6.23^a; pH, 72 h [4]: 6.09^a; pH, 0 h [5]: 6.76; pH, 24 h [5]: 6.07^a; pH, 72 h [5]: 5.95^a; Glycogen, 0 h [6]: 62.90 μmol/g muscle; Glycogen, 24 h [6]: 54.03^b μmol/g muscle; Glycogen, 72 h [6]: 43.77^a μmol/g muscle; Glycogen, 0 h [7]: 45.49 μmol/g muscle; Glycogen, 24 h [7]: 37.37 μmol/g muscle; Glycogen, 72 h [7]: 30.46^a μmol/g muscle; Glycogen, 0 h [8]: 48.22 μmol/g muscle; Glycogen, 24 h [8]: 43.98^a μmol/g muscle; Glycogen, 72 h [8]: 37.30^a μmol/g muscle; Shear force, 3 d [9]: 6.02 kg; Shear force, 7 d [9]: 5.56 kg; Shear force, 14 d [9]: 4.60 kg; Shear force, 3 d [10]: 6.13^bc kg; Shear force, 7 d [10]: 4.80^b kg; reduced shear force compared with controls [10]: 1.15 kg; Shear force, 3 d [11]: 5.18^bc kg; Shear force, 7 d [11]: 4.82^b kg; Shear force, 14 d [11]: 4.09 kg
